Patent US8609083B1, “Method for controlling fungal pathogen with bacterial metabolite” (The United States of America, as represented by the …, priority 2007, dated 2013)

Test system: F. effusum
Assay: Suppression of F. effusum sporulation on pecan terminal shoots
Assay type: in vivo, Fusicladosporium effusum
Conditions: 72 hours at 25° C.; for suppression of F. effusum sporulation, Abbott's formula relative to the acetone control: undiluted metabolites or fungicide products
Description: Dormant twigs with spore lesion constitute a primary source of scab infestation in pecan orchards. Scab disbursal via twig lesion sporulation occurs in early spring when temperatures are optimal. […] The shoots were selected for uniformity in diameter, cut into 5 cm segments, and placed into 1.5×10 cm test tubes.
Pecan shoots were sonicated for 30 minutes in 6 ml of 1% TWEEN 20 solution (polyoxyehtylene (20) sorbitan monolaurate). The number of spores released per lesion was counted via a hemocytometer. […]. A portion of the shoots were sonicated and counted prior to exposure to fungicidal treatments to verify that the shoots had not sporulated. The initial shoots lesions were designated as the baseline treatment.
Shoots were exposed to the following fungicidal treatments: undiluted metabolites derived from either P. luminescens (Hb) or X. bovienii (SN), and three chemical fungicide products used for control of F. effusum, i.e., dodine (Dodine 65W, 65% active ingredient, wettable powder, Platte Chemical Co. Greeley, Colo.), fenbuconazole (ENABLE 2F, 240 grams/liter active ingredient, flowable, Dow AgroSciences, Indianapolis Ind.), and triphenyltin hydroxide (SUPERTIN, 80% active ingredient, wettable powder, Griffin L. L. C., Valdosta, Ga.). The bacteria P. luminescens (Hb) was isolated from Heterorhabditis bacteriophora Poinar. The bacteria X. bovienii (SN) was isolated from Steinernema feltiae (Filipjev).
The shoots were also exposed to a water control and acetone control. Acetone was used as a solvent for the metabolites. The treatments were applied using an airbrush sprayer. The shoots were incubated at 25° C. for 72 hours, and exposed to sonification and quantification of spores. Ten replicate shoots for each treatment and the experiment was repeated once.

Row | Compound | suppression of F. effusum sporulation, Abbott's formula relative to the acetone control | sporulation of F. effusum on pecan shoots relative to the acetone or water control (FIG. 3)
1 | CCCCCCCCCCCCNC(=N)N [dodine] | 49.6% | 
2 | N#CC(CCc1ccc(Cl)cc1)(Cn1cncn1)c1ccccc1 (stereo not drawn) [fenbuconazole] | 80.4% | 
3 | [OH][Sn]([c]1ccccc1)([c]1ccccc1)[c]1ccccc1 [triphenyltin hydroxide] |  | No effect was detected
